For one test, the target named is T1, DYRK1B (Homo sapiens, UniProt Q9Y463).
T1 construct: full-length human kinases from Carna Biosciences; purchased Carna Biosciences 04-131
The test can be described thus: Kinase TR-FRET assay, DYRK1B. The test is classed as biochemical.

For test [1], the target named is T2, His-TEV-DYRK1A Kinase domain (aa127-485) (Homo sapiens, UniProt Q13627).
T2 construct: His-TEV-DYRK1A Kinase domain (aa127-485); His (N); TEV cleavage site (N)
The test can be described thus: Kinase ADP assay (ADP Hunter Plus). The test is classed as biochemical.

For the next test, the target named is T3, DYRK1A (Homo sapiens, UniProt Q13627).
T3 construct: full-length human kinases from Carna Biosciences; purchased Carna Biosciences 04-130
Briefly: Kinase TR-FRET assay, DYRK1A. It is filed as biochemical.

The next test deals with T4, phospho-Ser520-DYRK1A (Homo sapiens, UniProt Q13627).
T4 construct: full-length, wild-type human DYRK1A (NM_001396) with an HA tag; expressed in transfected cells; host or cells: human U2-OS osteosarcoma cells, pcDNA3.1 plasmid
The test can be described thus: Cellular DYRK1A autophosphorylation assay in U2-OS cells. The test is classed as cell-based. The settings on record: 5 hours exposure, read-out: IC50 (μM) P-Ser520-Dyrk1A-Cell assay.

A further test addresses T5, CLK1 (Homo sapiens, UniProt P49759).
T5 construct: full-length human kinases from Carna Biosciences; purchased Carna Biosciences 04-126
The test can be described thus: Kinase TR-FRET assay, CLK1. It is filed as biochemical. For orientation: Time-resolved FRET reads energy transfer from a long-lived donor to a nearby acceptor.

The structures appear in SMILES notation.

T1 sequence (Q9Y463 whole entry): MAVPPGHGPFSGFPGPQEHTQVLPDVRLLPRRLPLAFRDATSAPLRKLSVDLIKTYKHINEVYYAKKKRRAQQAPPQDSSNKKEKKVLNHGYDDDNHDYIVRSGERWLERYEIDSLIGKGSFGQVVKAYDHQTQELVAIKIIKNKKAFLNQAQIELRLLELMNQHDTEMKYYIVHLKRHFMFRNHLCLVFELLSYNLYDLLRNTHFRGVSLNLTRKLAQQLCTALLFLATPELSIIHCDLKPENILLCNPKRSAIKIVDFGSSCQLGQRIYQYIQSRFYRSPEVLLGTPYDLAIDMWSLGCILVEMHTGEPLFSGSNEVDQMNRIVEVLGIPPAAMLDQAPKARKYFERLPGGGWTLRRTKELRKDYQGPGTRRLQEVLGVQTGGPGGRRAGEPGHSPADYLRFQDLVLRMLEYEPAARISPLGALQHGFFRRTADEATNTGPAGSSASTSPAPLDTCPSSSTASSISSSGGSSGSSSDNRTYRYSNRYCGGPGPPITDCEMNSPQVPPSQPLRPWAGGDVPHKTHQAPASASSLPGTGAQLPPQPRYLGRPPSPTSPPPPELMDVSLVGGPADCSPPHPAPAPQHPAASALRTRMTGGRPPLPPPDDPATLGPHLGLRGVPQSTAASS
T5 sequence (P49759 1-526 isoform P49759-3): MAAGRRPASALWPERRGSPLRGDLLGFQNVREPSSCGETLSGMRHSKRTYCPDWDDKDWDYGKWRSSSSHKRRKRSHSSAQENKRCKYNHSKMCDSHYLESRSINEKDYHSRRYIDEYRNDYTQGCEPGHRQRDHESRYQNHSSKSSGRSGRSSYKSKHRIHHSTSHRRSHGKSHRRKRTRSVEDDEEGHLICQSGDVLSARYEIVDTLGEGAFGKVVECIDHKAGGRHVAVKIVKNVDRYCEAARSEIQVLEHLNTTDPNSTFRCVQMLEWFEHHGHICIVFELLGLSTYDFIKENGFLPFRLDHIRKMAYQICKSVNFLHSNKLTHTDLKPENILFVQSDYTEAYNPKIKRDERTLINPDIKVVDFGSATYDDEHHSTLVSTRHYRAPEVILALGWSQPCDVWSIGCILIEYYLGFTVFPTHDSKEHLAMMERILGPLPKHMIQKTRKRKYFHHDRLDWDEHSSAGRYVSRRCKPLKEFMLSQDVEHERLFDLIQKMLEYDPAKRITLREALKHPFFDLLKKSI

Broadly, the IC50 is the midpoint of a concentration-inhibition curve. For `Cc1nc(OCc2cc(C)on2)c2c(-c3ccncc3)c[nH]c2n1` [Example 16, 2-methyl-4-[(5-methyl-1,2-oxazol-3-yl)methoxy]-5-(pyridin-4-yl)-7H-pyrrolo[2,3-d]pyrimidine], the IC50 at DYRK1B stood at 0.0178 µM; in test [1] it was 0.011 µM; at DYRK1A it was 0.0149 µM; on phospho-Ser520-DYRK1A it was 0.14 µM; against CLK1 it was 0.0328 µM.

For the molecule `Cc1nc(OCc2ccc(C#N)cc2)c2c(-c3ccnc(N)c3)c[nH]c2n1` [Example 25, 4-({[5-(2-aminopyridin-4-yl)-2-methyl-7H-pyrrolo[2,3-d]pyrimidin-4-yl]oxy}methyl)benzonitrile], the IC50 stood at 0.0079 µM against DYRK1B; 0.012 µM in test [1]; 0.0031 µM against DYRK1A; 0.036 µM at phospho-Ser520-DYRK1A; 0.0177 µM at CLK1.

For the molecule `Cc1nc(NCc2c(C)cccc2Cl)c2c(-c3ccnc(N)c3)c[nH]c2n1` [Example 58, 5-(2-aminopyridin-4-yl)-N-(2-chloro-6-methylbenzyl)-2-methyl-7H-pyrrolo[2,3-d]pyrimidin-4-amine], the IC50 against DYRK1B was 0.0175 µM; in test [1], 0.01 µM; against DYRK1A, 0.0215 µM; at phospho-Ser520-DYRK1A it was 0.0337 µM; against CLK1 it was 0.0245 µM.

For the molecule `Cc1nc(NCc2c(Cl)cccc2Cl)c2c(-c3ccnc(N)c3)c[nH]c2n1` [Example 61, 5-(2-aminopyridin-4-yl)-N-(2,6-dichlolorobenzyl)-2-methyl-7H-pyrrolo[2,3-d]pyrimidin-4-amine], the IC50 at DYRK1B came to 0.0029 µM; in test [1] it was 0.01 µM; on DYRK1A it was 0.0062 µM; at phospho-Ser520-DYRK1A, 0.0115 µM; against CLK1 it was 0.0129 µM.

Turning to `Cc1nc(NCc2c(F)cccc2Cl)c2c(-c3ccnc(N)c3)c[nH]c2n1` [Example 62, 5-(2-aminopyridin-4-yl)-N-(2-chloro-6-fluorobenzyl)-2-methyl-7H-pyrrolo[2,3-d]pyrimidin-4-amine], the IC50 was 0.0002 µM against DYRK1B; 0.008 µM in test [1]; 0.0186 µM against DYRK1A; 0.021 µM on phospho-Ser520-DYRK1A; 0.0162 µM at CLK1.

For `Cc1nc(NCc2ncccc2C(F)(F)F)c2c(-c3ccnc(N)c3)c[nH]c2n1` [Example 78, 5-(2-aminopyridin-4-yl)-2-methyl-N-{[3-(trifluoromethyl)pyridin-2-yl]methyl}-7H-pyrrolo[2,3-d]pyrimidin-4-amine], the IC50 amounted to 0.0145 µM against DYRK1B; 0.01 µM in test [1]; 0.0013 µM at DYRK1A; 0.0721 µM at phospho-Ser520-DYRK1A; 0.0293 µM on CLK1.

As to `Cc1nc(NCc2cccc(Cl)c2C)c2c(-c3ccnc(N)c3)c[nH]c2n1` [Example 94, 5-(2-aminopyridin-4-yl)-N-(3-chloro-2-methylbenzyl)-2-methyl-7H-pyrrolo[2,3-d]pyrimidin-4-amine], the 50% inhibitory concentration (IC50) at DYRK1B worked out at 0.0112 µM; in test [1], 0.019 µM; against DYRK1A, 0.0077 µM; on phospho-Ser520-DYRK1A, 0.155 µM; at CLK1, 0.0378 µM.

On to `Cc1nc(N2CCc3ccccc3C2)c2c(-c3ccnc(N)c3)c[nH]c2n1` [Example 96, 4-[4-(3,4-dihydroisoquinolin-2(1H)-yl)-2-methyl-7H-pyrrolo[2,3-d]pyrimidin-5-yl]pyridin-2-amine], for which the IC50 amounted to 0.0315 µM against DYRK1B; 0.009 µM in test [1]; 0.0023 µM on DYRK1A; 0.0119 µM on phospho-Ser520-DYRK1A; 0.0151 µM at CLK1.

As for `Cc1nc(NC2Cc3ccccc3C2)c2c(-c3ccnc(N)c3)c[nH]c2n1` [Example 99, 5-(2-aminopyridin-4-yl)-N-(2,3-dihydro-1H-inden-2-yl)-2-methyl-7H-pyrrolo[2,3-d]pyrimidin-4-amine], the IC50 against DYRK1B was 0.0293 µM; in test [1] it was 0.029 µM; at DYRK1A, 0.0086 µM; on phospho-Ser520-DYRK1A it was 0.192 µM; on CLK1, 0.0549 µM.

Consider `Cc1nc(N2CCC3CCCCC3C2)c2c(-c3ccnc(N)c3)c[nH]c2n1` (stereo not shown) [Example 104, 4-[2-methyl-4-(octahydroisoquinolin-2(1H)-yl)-7H-pyrrolo[2,3-d]pyrimidin-5-yl]pyridin-2-amine], for which the IC50 at DYRK1B was found to be 0.0167 µM; in test [1], 0.015 µM; on DYRK1A, 0.0081 µM; on phospho-Ser520-DYRK1A, 0.105 µM; against CLK1, 0.0225 µM.

Regarding `Cc1nc(N2CCc3sccc3C2)c2c(-c3ccnc(N)c3)c[nH]c2n1` [Example 108, 4-[4-(6,7-dihydrothieno[3,2-c]pyridin-5(4H)-yl)-2-methyl-7H-pyrrolo[2,3-d]pyrimidin-5-yl]pyridin-2-amine], the half-inhibitory concentration (IC50) on DYRK1B worked out at 0.0092 µM; in test [1] it was 0.009 µM; against DYRK1A, 0.0027 µM; at phospho-Ser520-DYRK1A it was 0.0491 µM; at CLK1 it was 0.0283 µM.

As to `Cc1nc(NCc2c(F)cccc2F)c2c(-c3cc(N)nc(N)c3)c[nH]c2n1` [Example 115, 4-{4-[(2,6-difluorobenzyl)amino]-2-methyl-7H-pyrrolo[2,3-d]pyrimidin-5-yl}pyridine-2,6-diamine], the IC50 against DYRK1B stood at 0.0094 µM; in test [1], 0.005 µM; on DYRK1A it was 0.0031 µM; at phospho-Ser520-DYRK1A it was 0.0185 µM; against CLK1, 0.0172 µM.

As for `COc1ccccc1[C@H](C)Nc1nc(C)nc2[nH]cc(-c3cc(N)nc(N)c3)c12` [Example 117, 4-(4-{[(1S}-1-(2-methoxyphenyl)ethyl]amino}-2-methyl-7H-pyrrolo[2,3-d]pyrimidin-5-yl)pyridine-2,6-diamine], the 50% inhibitory concentration (IC50) against DYRK1B was found to be 0.0093 µM; in test [1], 0.01 µM; against DYRK1A, 0.0059 µM; on phospho-Ser520-DYRK1A, 0.0377 µM; against CLK1, 0.0195 µM.

In the case of `Cc1nc(NCc2c(F)cncc2F)c2c(-c3ccnc(N)c3)c[nH]c2n1` [Example 119, 5-(2-aminopyridin-4-yl)-N-[(3,5-difluoropyridin-4-yl)methyl]-2-methyl-7H-pyrrolo[2,3-d]pyrimidin-4-amine], the IC50 at DYRK1B was 0.0192 µM; in test [1], 0.02 µM; on DYRK1A, 0.0066 µM; on phospho-Ser520-DYRK1A, 0.232 µM; against CLK1, 0.0828 µM.

Turning to `C#Cc1nc(NCc2c(F)cccc2F)c2c(-c3ccnc(N)c3)c[nH]c2n1` [Example 148, 5-(2-aminopyridin-4-yl)-N-(2,6-difluorobenzyl)-2-ethynyl-7H-pyrrolo[2,3-d]pyrimidin-4-amine], the half-maximal inhibitory concentration (IC50) on DYRK1B worked out at 0.0144 µM; in test [1], 0.007 µM; at DYRK1A, 0.0042 µM; at phospho-Ser520-DYRK1A, 0.0335 µM; on CLK1, 0.0303 µM.

Consider `Cc1nc(-c2cc3ccccc3[nH]2)c2c(-c3ccnc(N)c3)c[nH]c2n1` [Example 161], for which the IC50 against DYRK1B was 0.0252 µM; in test [1], 0.028 µM; against DYRK1A it was 0.0091 µM; at phospho-Ser520-DYRK1A, 0.15 µM; against CLK1 it was 0.122 µM.

In the case of `Cc1nc(-c2ccc3c(c2)OCCO3)c2c(-c3ccnc(N)c3)c[nH]c2n1` [Example 173], the IC50 was 0.0051 µM against DYRK1B; 0.013 µM in test [1]; 0.0045 µM against DYRK1A; 0.0497 µM on phospho-Ser520-DYRK1A; 0.0334 µM against CLK1.

For the molecule `Cc1nc(CN2CCc3ccccc32)c2c(-c3ccnc(N)c3)c[nH]c2n1` [Example 178, 4-[4-(2,3-dihydro-1H-indol-1-ylmethyl)-2-methyl-7H-pyrrolo[2,3-d]pyrimidin-5-yl]pyridin-2-amine], the IC50 was determined as 0.0141 µM against DYRK1B; 0.013 µM in test [1]; 0.0052 µM on DYRK1A; 0.0782 µM on phospho-Ser520-DYRK1A; 0.18 µM against CLK1.

Regarding `Cc1nc(-c2cc3cccc(Cl)c3s2)c2c(-c3ccnc(N)c3)c[nH]c2n1` [Example 185], the IC50 at DYRK1B came out at 0.0158 µM; in test [1], 0.011 µM; on DYRK1A, 0.0048 µM; on phospho-Ser520-DYRK1A it was 0.012 µM; against CLK1 it was 0.0631 µM.

Take `Cc1nc(-c2cc3ccccc3n2C)c2c(-c3ccnc(N)c3)c[nH]c2n1` [Example 186]: the IC50 at DYRK1B worked out at 0.0211 µM; in test [1] it was 0.017 µM; at DYRK1A, 0.0053 µM; on phospho-Ser520-DYRK1A, 0.0855 µM; at CLK1, 0.0927 µM.

For `Cc1nc(NCc2c(F)cccc2F)c2c(-c3ccnc(N)n3)c[nH]c2n1` [Example 206, 5-(2-aminopyrimidin-4-yl)-N-(2,6-difluorobenzyl)-2-methyl-7H-pyrrolo[2,3-d]pyrimidin-4-amine], the IC50 against DYRK1B turned out to be 0.0133 µM; against CLK1, 0.0238 µM.

With `Cc1cc(NCc2c(F)cccc2F)c2c(-c3ccnc(N)c3)c[nH]c2n1` [Example 213, 3-(2-aminopyridin-4-yl)-N-(2,6-difluorobenzyl)-6-methyl-1H-pyrrolo[2,3-b]pyridin-4-amine], the IC50 amounted to 0.0092 µM against DYRK1B; 0.008 µM in test [1]; 0.0026 µM against DYRK1A; 0.057 µM on phospho-Ser520-DYRK1A; 0.0172 µM on CLK1.

With `Nc1cc(-c2c[nH]c3nc(C#CC4CC4)cc(NCc4c(F)cccc4F)c23)ccn1` [Example 216, 3-(2-aminopyridin-4-yl)-6-(cyclopropylethynyl)-N-(2,6-difluorobenzyl)-1H-pyrrolo[2,3-b]pyridin-4-amine], the IC50 on DYRK1B was 0.0219 µM; in test [1], 0.021 µM; against DYRK1A, 0.0145 µM; at phospho-Ser520-DYRK1A, 0.0807 µM; on CLK1, 0.121 µM.

Source of the values: patent US20180273538A1, “PYRROLO[2,3-d]PYRIMIDINE DERIVATIVES, A PROCESS FOR THEIR PREPARATION AND PHARMACEUTICAL COMPOSITIONS CONTAINING THEM” (LES LABORATOIRES SERVIER, priority 2015, published 2018).
